Experimental data from publication PMC6901909, “Synergy Pattern of Short Cationic Antimicrobial Peptides Against Multidrug-Resistant Pseudomonas aeruginosa” (Frontiers in Microbiology, 2019).
Converted amounts (≈) assume the structure as drawn. Peptide text beside a SMILES is read from it.

Experiments:
Assay in all cases: microbe, parasite or virus in culture
Type in all cases: cell-based, Pseudomonas aeruginosa
MDR P. aeruginosa PA 910 = conditions: MDR PA 910, 18 h
Procedure: (§1) We selected six different P. aeruginosa isolates that were described as MDR and had been isolated from clinical and municipal waste water ([Schwartz et al., 2006]). The minimal inhibitory concentration (MIC) was determined in a microdilution assay using Mueller-Hinton (MH) broth following a previously published protocol ([Wiegand et al., 2008]). Briefly, a twofold serial dilution of the antibiotics and peptides were prepared and added to a bacteria solution, resulting in 2–5 10^5 CFU/ml. The microtiter plates (polypropylene, Corning) were incubated for 18 h at 37°C and MICs were taken visually.

P. aeruginosa PA01-wt = conditions: -wt, 18 h
Procedure: as §1

MDR P. aeruginosa PA 919 = conditions: MDR PA 919, 18 h
Procedure: as §1

MDR P. aeruginosa PA253 = conditions: MDR PA253, 18 h
Procedure: as §1

Row | Compound | MIC against PA910 in μM (peptides, Table 4) (MDR P. aeruginosa PA 910) [µM] | MIC against PA01 wt (P. aeruginosa PA01-wt) [µM] | MIC against MDR isolates of PA, PA919 (MDR P. aeruginosa PA 919) [µM] | MIC against MDR isolates of PA, PA253 (MDR P. aeruginosa PA253) [µM] | MIC against MDR isolates of PA, PA910 (MDR P. aeruginosa PA 910) [µM]
1 | CC[C@H](C)[C@H](NC(=O)[C@@H](N)Cc1ccccc1)C(=O)N[C@@H](CCCCN)C(=O)N[C@@H](Cc1c[nH]c2ccccc12)C(=O)N[C@@H](CCCNC(=N)N)C(=O)N[C@@H](CO)C(=O)N[C@@H](CCCNC(=N)N)C(=O)N[C@@H](Cc1c[nH]c2ccccc12)C(=O)N[C@@H](Cc1c[nH]c2ccccc12)C(=O)N[C@@H](CCCCN)C(=O)N[C@@H](CCCCN)C(=O)N[C@@H](CCCNC(=N)N)C(=O)N[C@H](C(N)=O)[C@@H](C)O [Indopt 3] (H-FIKWRSRWWKKRT-NH2) | 8 (≈ 15 µg/mL) | 4 (≈ 7.51 µg/mL) | 32 | 16 | 
2 | CC[C@H](C)[C@H](NC(=O)[C@@H](N)Cc1ccccc1)C(=O)N[C@@H](CCCCN)C(=O)N[C@@H](Cc1c[nH]c2ccccc12)C(=O)N[C@@H](CCCNC(=N)N)C(=O)N[C@@H](Cc1ccccc1)C(=O)N[C@@H](CCCNC(=N)N)C(=O)N[C@@H](CCCNC(=N)N)C(=O)N[C@@H](Cc1c[nH]c2ccccc12)C(=O)N[C@@H](CCCCN)C(=O)N[C@@H](CCCCN)C(=O)N[C@@H](CCCNC(=N)N)C(=O)N[C@@H](CCCCN)C(N)=O [Indopt 4] (H-FIKWRFRRWKKRK-NH2) | 4 to 8 | 4 (≈ 7.74 µg/mL) | 16 to 32 | 8 | 4 to 8
3 | CC[C@H](C)[C@H](NC(=O)[C@@H](N)Cc1ccccc1)C(=O)N[C@@H](CCCCN)C(=O)N[C@@H](Cc1c[nH]c2ccccc12)C(=O)N[C@@H](CCCCN)C(=O)N[C@@H](Cc1ccccc1)C(=O)N[C@@H](CCCNC(=N)N)C(=O)N1CCC[C@H]1C(=O)N[C@@H](Cc1c[nH]c2ccccc12)C(=O)N[C@@H](CCCCN)C(=O)N[C@@H](CCCCN)C(=O)N[C@@H](CCCNC(=N)N)C(=O)N[C@H](C(N)=O)[C@@H](C)O [Indopt 5] (H-FIKWKFRPWKKRT-NH2) | 8 (≈ 14.6 µg/mL) | 4 (≈ 7.28 µg/mL) | 16 to 32 | 16 | 
4 | CC[C@H](C)[C@H](NC(=O)[C@@H](N)Cc1ccccc1)C(=O)N[C@@H](CCCCN)C(=O)N[C@@H](CCCNC(=N)N)C(=O)N[C@@H](CCCCN)C(=O)N[C@@H](CO)C(=O)N[C@@H](CCCNC(=N)N)C(=O)N[C@@H](Cc1c[nH]c2ccccc12)C(=O)N[C@@H](Cc1c[nH]c2ccccc12)C(=O)N[C@@H](CCCCN)C(=O)N[C@@H](Cc1c[nH]c2ccccc12)C(=O)N[C@@H](CCCNC(=N)N)C(=O)N[C@H](C(N)=O)[C@@H](C)O [Indopt 6] (H-FIKRKSRWWKWRT-NH2) | 8 (≈ 15 µg/mL) | 4 (≈ 7.51 µg/mL) | 32 | 8 to 16 | 
5 | CC[C@H](C)[C@H](N)C(=O)N[C@@H](CC(C)C)C(=O)N[C@@H](CCCCN)C(=O)N[C@@H](Cc1c[nH]c2ccccc12)C(=O)N[C@@H](CCCCN)C(=O)N[C@@H](CCCNC(=N)N)C(=O)N[C@@H](CCCCN)C(=O)N[C@@H](Cc1c[nH]c2ccccc12)C(=O)N[C@@H](Cc1c[nH]c2ccccc12)C(=O)N[C@@H](CCCCN)C(=O)N[C@@H](Cc1c[nH]c2ccccc12)C(=O)N[C@@H](Cc1ccccc1)C(=O)N[C@@H](CCCNC(=N)N)C(N)=O [Indopt 7] (H-ILKWKRKWWKWFR-NH2) | 4 (≈ 7.84 µg/mL) | 2 (≈ 3.92 µg/mL) | 32 | 8 | 
6 | CC[C@H](C)[C@H](N)C(=O)N[C@@H](CC(C)C)C(=O)N[C@@H](CCCCN)C(=O)N[C@@H](Cc1c[nH]c2ccccc12)C(=O)N[C@@H](CCCCN)C(=O)N[C@H](C(=O)N[C@@H](Cc1ccccc1)C(=O)N[C@@H](CCCCN)C(=O)N[C@@H](Cc1c[nH]c2ccccc12)C(=O)N[C@@H](CCCCN)C(=O)N[C@@H](Cc1c[nH]c2ccccc12)C(=O)N[C@@H](Cc1ccccc1)C(=O)N[C@@H](CCCNC(=N)N)C(N)=O)[C@@H](C)CC [Indopt 10] (H-ILKWKIFKWKWFR-NH2) | 4 (≈ 7.51 µg/mL) | 2 (≈ 3.76 µg/mL) | 32 | 8 to 16 | 
7 | CC[C@H](C)[C@H](N)C(=O)N[C@@H](CC(C)C)C(=O)N[C@@H](CCCCN)C(=O)N[C@@H](Cc1c[nH]c2ccccc12)C(=O)N[C@@H](CCCCN)C(=O)N[C@@H](CCSC)C(=O)N[C@@H](Cc1ccccc1)C(=O)N[C@@H](CCCCN)C(=O)N[C@@H](Cc1c[nH]c2ccccc12)C(=O)N[C@@H](CCCCN)C(=O)N[C@@H](Cc1c[nH]c2ccccc12)C(=O)N[C@@H](Cc1ccccc1)C(=O)N[C@@H](CCCNC(=N)N)C(N)=O [Indopt 12] (H-ILKWKMFKWKWFR-NH2) | 4 (≈ 7.59 µg/mL) | 2 (≈ 3.79 µg/mL) | 16 | 16 | 
8 | CC(C)[C@H](NC(=O)[C@H](Cc1c[nH]c2ccccc12)NC(=O)[C@H](CCCNC(=N)N)NC(=O)[C@H](Cc1c[nH]c2ccccc12)NC(=O)[C@H](Cc1c[nH]c2ccccc12)NC(=O)[C@H](CCCNC(=N)N)NC(=O)[C@@H](N)CCCNC(=N)N)C(=O)N[C@H](C(=O)N[C@@H](Cc1c[nH]c2ccccc12)C(N)=O)C(C)C [LOP2] (H-RRWWRWVVW-NH2) | 8 (≈ 11.4 µg/mL) | 4 (≈ 5.71 µg/mL) | 2 | 8 | 
9 | CC[C@H](C)[C@H](NC(=O)[C@H](CCCNC(=N)N)NC(=O)[C@H](Cc1c[nH]c2ccccc12)NC(=O)[C@H](CCCNC(=N)N)NC(=O)[C@H](CCCNC(=N)N)NC(=O)[C@@H](N)CCCCN)C(=O)N[C@@H](Cc1c[nH]c2ccccc12)C(=O)N[C@@H](CC(C)C)C(=O)N[C@H](C(N)=O)C(C)C [LOP3] (H-KRRWRIWLV-NH2) | 8 (≈ 10.5 µg/mL) | 4 (≈ 5.25 µg/mL) | 4 | 4 to 8 | 
10 | CC[C@H](C)[C@H](NC(=O)[C@@H](NC(=O)[C@H](CCCNC(=N)N)NC(=O)[C@H](Cc1c[nH]c2ccccc12)NC(=O)[C@H](CCCNC(=N)N)NC(=O)[C@@H](N)CCCNC(=N)N)C(C)C)C(=O)N[C@H](C(=O)N[C@@H](CCCCN)C(=O)N[C@@H](Cc1c[nH]c2ccccc12)C(N)=O)C(C)C [LOP4] (H-RRWRVIVKW-NH2) | 4 (≈ 5.19 µg/mL) | 4 (≈ 5.19 µg/mL) | 4 | 8 | 
11 | CC[C@H](C)[C@H](NC(=O)[C@H](Cc1c[nH]c2ccccc12)NC(=O)[C@H](CCCCN)NC(=O)[C@H](CCCCN)NC(=O)[C@H](CC(C)C)NC(=O)[C@H](Cc1c[nH]c2ccccc12)NC(=O)[C@H](CCCCN)NC(=O)[C@@H](N)Cc1c[nH]c2ccccc12)C(=O)N[C@@H](CCCCN)C(N)=O [LOP5] (H-WKWLKKWIK-NH2) | 8 (≈ 10.5 µg/mL) | 4 (≈ 5.26 µg/mL) | 8 | 8 | 
